The text below walks through data of US20040121965A1, “Method of treating resistant tumors” (Wyeth Holdings Corporation, priority 2002, published 2004).

As a reminder, the IC50 is the concentration at which inhibition is half-maximal.

Read-outs that look alike come from different tables or passages of the source. Bounds are passed on as bounds.

In one assay the test system is KB-V1 (MDR1++). The assay is described as follows: Cell survival assay (SRB), KB-V1 (MDR1++). To be noted: for IC50: Homo sapiens.
Another assay relates to KB-3-1. Nature of the assay: Cell survival assay (SRB), KB-3-1. To be noted: Homo sapiens, KB 3-1, KB-3-1 cells (paclitaxel-sensitive parent); read-out: In vitro IC50 (nM) KB-3-1. The assay is classed as cell-based, human. An outline of the steps: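 Cells were exposed to serially diluted compound in duplicate for 3 days. Survival was read as protein content by SRB (TCA fixation 1 hr at 4 °C, 0.04% SRB stain, dissolved in 10 mM Tris, absorbance). KB-3-1 was grown in 20% FCS. IC50 is the concentration giving 50% growth inhibition.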

For a further assay, the system named is KB-8-5 (MDR1+). Nature of the assay: Cell survival assay (SRB), KB-8-5 (MDR1+). To be noted: for IC50: Homo sapiens, MDR1, read-out: In vitro IC50 (nM) KB85.
[1] abbreviates: read-out: In vitro IC50 (nM) KBV1.

For the compound `CC/C(=C\[C@H](CC(C)C)N(C)C(=O)[C@@H](NC(=O)[C@@H](NC)C(C)(C)c1ccccc1)C(C)(C)C)C(=O)O` [Example 76, N,β,β-Trimethyl-L-phenylalanyl-N^1-[(1S,2E)-3-carboxy-1-isobutyl-2-pentenyl]-N^1,3-dimethyl-L-valinamide], in the assay with KB-V1 (MDR1++), the “Ratio KBV1/KB” value is recorded as 42.4. Further, the IC50 with KB-V1 (MDR1++) (setting [1]) is at least 3000 nM; with KB-3-1, 70.8 nM; with KB-8-5 (MDR1+), 169 nM. In addition, the “Ratio KB85/KB” value with KB-8-5 (MDR1+) came to 2.4.
On to `CN[C@H](C(=O)N[C@H](C(=O)N[C@H](/C=C(\C)C(=O)O)CC(C)C)C(C)(C)C)C(C)(C)c1ccccc1.O=C(O)C(F)(F)F` [Example 93, N,β,β-trimethyl-L-phenylalanyl-N^1-[(1S,2E)-3-carboxy-1-isobutylbut-2-enyl]-3-methyl-L-valinamide Trifluoroacetic Acid], for which the “Ratio KBV1/KB” value in the assay with KB-V1 (MDR1++) turned out to be 35.2. Besides, the results for the IC50 with KB-V1 (MDR1++) (setting [1]), in the assay on KB-3-1 and in the assay with KB-8-5 (MDR1+) were at least 3000 nM, 85.2 nM and 339 nM, respectively. Moreover, the “Ratio KB85/KB” value in the assay with KB-8-5 (MDR1+) amounted to 4.0.
For `CN[C@H](C(=O)N[C@H](C(=O)N(C)[C@H](/C=C(\C)C(=O)O)C(C)C)C(C)(C)C)C(C)(C)c1cccc(-c2ccccc2)c1` [Example 39, 3-phenyl-N,β,β-trimethyl-L-phenylalanyl-N^1-[(1S,2E)-3-carboxy-1-isopropylbut-2-enyl]-N^1,3-dimethyl-L-valinamide] the same measures were 78.4, 149 nM, 1.9 nM, 5.4 nM and 2.8.
As for `CN[C@H](C(=O)N[C@H](C(=O)N(C)[C@H](/C=C(\C)C(=O)O)C(C)C)C(C)(C)C)C(C)(C)c1cccc(O)c1` [Example 47, 3-Hydroxy-N,β,β-trimethylphenylalanyl-N^1-[(1S,2E)-3-carboxy-1-isopropyl-2-butenyl]-N^1,3-dimethyl-L-valinamide], the “Ratio KBV1/KB” value with KB-V1 (MDR1++) amounted to 329.7. In addition, the IC50 was 2310 nM in the assay with KB-V1 (MDR1++) (setting [1]), 7 nM in the assay with KB-3-1 and 37.5 nM with KB-8-5 (MDR1+). Moreover, the “Ratio KB85/KB” value in the assay on KB-8-5 (MDR1+) is reported as 5.4.
Take `CCOC(=O)/C(C)=C/[C@H](C(C)C)N(C)C(=O)[C@@H](NC(=O)[C@@H](NC)C(C)(C)c1ccc(OC)cc1)C(C)(C)C` [Example 56, N,O,β,β-tetramethyl-L-tyrosyl-N^1-[(1S,2E)-4-ethoxy-1-isopropyl-3-methyl-4-oxo-2-butenyl]-N^1,3-dimethyl-L-valinamide]: the “Ratio KBV1/KB” value in the assay with KB-V1 (MDR1++) worked out at 67.6. The IC50 was found to be 1780 nM in the assay with KB-V1 (MDR1++) (setting [1]), 26.3 nM in the assay on KB-3-1 and 479 nM in the assay on KB-8-5 (MDR1+). Further, in the assay with KB-8-5 (MDR1+), the “Ratio KB85/KB” value is on record as 18.2.
In the case of `CN[C@H](C(=O)N[C@H](C(=O)N(C)[C@H](/C=C(\C)C(N)=O)C(C)C)C(C)(C)C)C(C)(C)c1ccccc1` [Example 107, (E,4S)-4-[((2S)-3,3-dimethyl-2-{[(2S)-3-methyl-2-(methylamino)-3-phenylbutanoyI]amino}butanoyl)(methyl)amino]-2,5-dimethyl-2-hexenamide], in the assay with KB-V1 (MDR1++), the “Ratio KBV1/KB” value was 46.4. The IC50 with KB-V1 (MDR1++) (setting [1]) was at least 3000 nM; in the assay with KB-3-1, 64.7 nM; with KB-8-5 (MDR1+), 162 nM. For the same compound, the “Ratio KB85/KB” value in the assay with KB-8-5 (MDR1+) came to 2.5.
For `CN[C@@H](C(=O)N[C@H](C(=O)N(C)[C@H](/C=C(\C)C(=O)O)C(C)C)C(C)(C)C)C1(c2ccccc2)CCCC1` [Example 72, (2E,4S)-2,5-dimethyl-4-(methyl{3-methyl-N-[(2R)-2-(methylamino)-2-(1-phenylcyclopentyl)ethanoyl]-L-valyl}amino)-2-hexenoic Acid] the same measures were 45.0, 2660 nM, 59.3 nM, 63.1 nM and 1.1.
For `CCOC(=O)/C(C)=C/C(C(C)C)N(C)C(=O)[C@@H](NC(=O)[C@@H](NC)C(C)(C)c1ccccc1)[C@H](C)O` (stereo in doubt) [Example 85, N,β,β-trimethyl-L-phenylalanyl-N^1-[(1R,2E)-4-ethoxy-1-isopropyl-3-methyl-4-oxo-2-butenyl]-N^1-methyl-L-allothreoninamide] the same measures were 26.0, at least 3000 nM, 115 nM, 1330 nM and 11.5.
For `CCOC(=O)/C(C)=C/[C@H](C(C)C)N(C)C(=O)[C@@H](NC(=O)[C@@H](NC)C(C)(C)c1cccc(C)c1)C(C)(C)C` [Example 7a, N,β,β,3-Tetramethyl-L-phenylalanyl-N^1-[(1S,2E)4-ethoxy-1-isopropyl-3-methyl-4-oxo-2-butenyl]-N^1,3-dimethyl-L-valinamide] the same measures were 110.0, 2410 nM, 21.9 nM, 525 nM and 24.0.
For the compound `CN[C@H](C(=O)N[C@H](C(=O)N(C)[C@H](/C=C(\C)C(=O)O)C(C)C)C(C)(C)C)C(C)(C)c1ccccc1C` [Example 35, N,β,β,2-Tetramethyl-L-phenylalanyl-N^1-[(1S,2E)-3-carboxy-1-isopropyl-2-butenyl]-N^1,3-dimethyl-L-valinamide], the “Ratio KBV1/KB” value in the assay with KB-V1 (MDR1++) was determined as 61.6. Also, the concentration for half-maximal inhibition (IC50) turned out to be 56.2 nM in the assay on KB-V1 (MDR1++) (setting [1]), 0.912 nM in the assay on KB-3-1 and 1.8 nM in the assay on KB-8-5 (MDR1+). Further, in the assay on KB-8-5 (MDR1+), the “Ratio KB85/KB” value is recorded as 2.0.
The matching figures for `CN[C@H](C(=O)N[C@H](C(=O)N(C)[C@H](/C=C(\C)C(=O)O)C(C)C)C(C)(C)O)C(C)(C)c1ccccc1` [Example 156, N,β,β-trimethyl-L-phenylalanyl-N^1-[(1S,2E)-3-carboxy-1-isopropylbut-2-enyl]-3-hydroxy-N^1-methyl-L-valinamide]: 51.7, above 3000 nM, 58 nM, 95 nM and 1.6.
For `CCOC(=O)/C(C)=C/[C@H](C(C)C)N(C)C(=O)[C@@H](NC(=O)[C@@H](NC)C(C)(C)c1cc(C)cc(C)c1)C(C)(C)C` [Example 16a, N,β,β,3,5-Pentamethyl-L-phenylalanyl-N^1-[(1S,2E)-4-ethoxy-1-isopropyl-3-methyl-4-oxo-2-butenyl]-N^1,3-dimethyl-L-valinamide], the “Ratio KBV1/KB” value with KB-V1 (MDR1++) was found to be 120.5. Also, the values for the IC50 in the assay on KB-V1 (MDR1++) (setting [1]), in the assay with KB-3-1 and in the assay on KB-8-5 (MDR1+) were 1820 nM, 15.1 nM and 302 nM, respectively. Further, the “Ratio KB85/KB” value in the assay on KB-8-5 (MDR1+) worked out at 20.0.
The matching figures for `C/C(=C\[C@H](C(C)C)N(C)C(=O)[C@@H](NC(=O)[C@@H](N1CCCC1)C(C)(C)c1ccccc1)C(C)(C)C)C(=O)O` [Example 152, (2E,4S)-2,5-dimethyl-4-(methyl{3-methyl-N-[(2S)-3-methyl-3-phenyl-2-pyrrolidin-1-ylbutanoyl]-L-valyl}amino)hex-2-enoic Acid]: 40, above 3000 nM, 75 nM, 158 nM and 2.1.
For `CN[C@H](C(=O)N[C@H](C(=O)N(C)[C@H](/C=C(\C)C(=O)O)C(C)C)C(C)(C)C)C(C)(C)c1c[nH]c2ccccc12` [Example 141, N,β,β-trimethyl-L-tryptophyl-N^1-[(1S,2E)-3-carboxy-1-isopropyl-2-butenyl]-N^1,3-dimethyl-L-valinamide] the same measures were 139.4, 96.9 nM, 0.695 nM, 1.65 nM and 2.4.
As for `CN[C@@H](C(=O)N[C@H](C(=O)N(C)[C@H](/C=C(\C)C(=O)O)C(C)C)C(C)(C)C)C(C)(C)c1cc(C(F)(F)F)cc(C(F)(F)F)c1` [Example 67, N,β,β-trimethyl-3,5-bis(trifluoromethyl)-D-phenylalanyl-N^1-[(1S,2E)-3-carboxy-1-isopropylbut-2-enyl]-N^1,3-dimethyl-L-valinamide], the IC50 in the assay with KB-V1 (MDR1++) (read-out: In vitro IC50 KBV1) is above 3000 nM; in the assay on KB-3-1, 170 nM; in the assay on KB-8-5 (MDR1+), 186 nM. In addition, in the assay on KB-8-5 (MDR1+), the “Ratio KB85/KB” value is recorded as 1.1.
With `CN[C@H](C(=O)N[C@H](C(=O)N(C)[C@H](/C=C(\C)C(=O)O)C(C)C)C(C)(C)C)C(C)(C)c1cc(C)cc(C)c1` [Example 17, N,β,β,3,5-Pentamethyl-L-phenylalanyl-N^1-[(1S,2E)-3-carboxy-1-isopropyl-2-butenyl]-N^1,3-dimethyl-L-valinamide], the “Ratio KBV1/KB” value with KB-V1 (MDR1++) is listed as 75.7. In addition, the figures for the IC50 in the assay on KB-V1 (MDR1++) (setting [1]), in the assay on KB-3-1 and in the assay with KB-8-5 (MDR1+) were 44 nM, 1 nM and 1 nM, respectively.
In the case of `CN[C@H](C(=O)N[C@H](C(=O)N(C)[C@H](/C=C(\C)C(=O)O)C(C)C)C(C)(C)C)C(C)(C)c1ccc(C)cc1` [Example 11, N,β,β,4-Tetramethyl-L-phenylalanyl-N^1-[(1S,2E)-3-carboxy-1-isopropyl-2-butenyl]-N^1,3-dimethyl-L-valinamide], the “Ratio KBV1/KB” value with KB-V1 (MDR1++) came to 36.7. In addition, the IC50 in the assay on KB-V1 (MDR1++) (setting [1]) is 55 nM; in the assay with KB-3-1 it was 1.5 nM; with KB-8-5 (MDR1+) it was 2.6 nM. For the same compound, the “Ratio KB85/KB” value with KB-8-5 (MDR1+) was 1.7.
With `CN[C@H](C(=O)N[C@H](C(=O)N(C)[C@H](/C=C(\C)C(=O)O)C(C)C)C(C)(C)C)C(C)(C)c1cc(F)cc(F)c1` [Example 64, 3,5-Difluoro-N,β,β-trimethyl-L-phenylalanyl-N^1-[(1S,2E)-3-carboxy-1-isopropylbut-2-enyl]-N^1,3-dimethyl-L-valinamide], in the assay on KB-V1 (MDR1++), the “Ratio KBV1/KB” value amounted to 73.7. For the same compound, the IC50 in the assay on KB-V1 (MDR1++) (setting [1]) was found to be 457 nM; in the assay on KB-3-1 it was 6.2 nM; in the assay with KB-8-5 (MDR1+), 16.2 nM. Also, the “Ratio KB85/KB” value with KB-8-5 (MDR1+) came out at 2.6.
